Laboratory results from patent publication US10934302B1, “SHP2 phosphatase inhibitors and methods of use thereof” (Relay Therapeutics, Inc., priority 2018, dated 2021).

Target: SHP2 (Homo sapiens (Human), UniProt Q06124)
Assay: SHP2 allosteric inhibition assay (DiFMUP prompt fluorescence)
Format: biochemical
Conditions: 0.25 nM SHP2 activated with 0.5 μM peptide IRS1_pY1172(dPEG8)pY1222; substrate DiFMUP

IC50 [nM]	SMILES
≤ 50	N[C@@H]1c2c(F)ccc(F)c2CC12CCN(c1cnc3c(N4CCCc5ncccc54)n[nH]c3n1)CC2 [Example 112]
≤ 50	N[C@H]1c2ccccc2CC12CN(c1cnc3c(N4CCCc5ncccc54)n[nH]c3n1)C2 [Example 114]
≤ 50	N[C@@H]1c2ccccc2CC12CN(c1cnc3c(N4CCCc5ncccc54)n[nH]c3n1)C2 [Example 115]
≤ 50	N#Cc1cccc2c1CC1(CCN(c3cnc4c(N5CCCc6ncccc65)n[nH]c4n3)CC1)[C@@H]2N [Example 117, (S)-1-amino-1′-(3-(3,4-dihydro-1,5-naphthyridin-1(2H)-yl)-1H-pyrazolo[3,4-b]pyrazin-6-yl)-1,3-dihydrospiro[indene-2,4′-piperidine]-4-carbonitrile]
≤ 50	N[C@H]1c2ccccc2OC12CCN(c1cnc3c(N4CCCc5ncccc54)n[nH]c3n1)CC2 [Example 118, (S)-1′-(3-(3,4-dihydro-1,5-naphthyridin-1(2H)-yl)-1H-pyrazolo[3,4-b]pyrazin-6-yl)-3H-spiro[benzofuran-2,4′-piperidin]-3-amine]
≤ 50	N[C@@H]1c2ccccc2OC12CCN(c1cnc3c(N4CCCc5ncccc54)n[nH]c3n1)CC2 [Example 119, (R)-1′-(3-(3,4-dihydro-1,5-naphthyridin-1(2H)-yl)-1H-pyrazolo[3,4-b]pyrazin-6-yl)-3H-spiro[benzofuran-2,4′-piperidin]-3-amine]
≤ 50	Nc1cnc(CO)c(N2CCC3(CC2)Cc2ccccc2[C@H]3N)n1 [Example 123, {5-amino-3-[(3S)-3-amino-1,3-dihydrospiro[indene-2,4′-piperidin]-1′-yl]pyrazin-2-yl}methanol]
≤ 50	Cc1nc2c(N3CCCc4ncccc43)n[nH]c2nc1N1CCC2(CC1)Cc1ccccc1[C@H]2N [Example 124, (S)-1′-(3-(3,4-dihydro-1,5-naphthyridin-1(2H)-yl)-5-methyl-1H-pyrazolo[3,4-b]pyrazin-6-yl)-1,3-dihydrospiro[indene-2,4′-piperidin]-1-amine]
≤ 50	CNC(=O)c1n[nH]c2nc(N3CCC4(CC3)Cc3ccccc3[C@H]4N)c(C)nc12 [Example 125, 6-[(3S)-3-amino-1,3-dihydrospiro[indene-2,4′-piperidin]-1′-yl]-N,5-dimethyl-1H-pyrazolo[3,4-b]pyrazine-3-carboxamide]
≤ 50	N[C@@H]1c2ccccc2CC12CCN(c1cnc3c(Oc4ccnc(Cl)c4Cl)n[nH]c3n1)CC2 [Example 126, (3S)-1′-{3-[(2,3-dichloropyridin-4-yl)oxy]-1H-pyrazolo[3,4-b]pyrazin-6-yl}-1,3-dihydrospiro[indene-2,4′-piperidin]-3-amine]
50 to 1000	Cc1nccc(Oc2n[nH]c3nc(N4CCC5(CC4)Cc4ccccc4[C@H]5N)cnc23)c1Cl [Example 127]
≤ 50	Cn1ccc(Oc2n[nH]c3nc(N4CCC5(CC4)Cc4ccccc4[C@H]5N)cnc23)c(Cl)c1=O [Example 128, (S)-4-((6-(1-amino-1,3-dihydrospiro[indene-2,4′-piperidin]-1′-yl)-1H-pyrazolo[3,4-b]pyrazin-3-yl)oxy)-3-chloro-1-methylpyridin-2(H)-one]
≤ 50	N[C@@H]1c2ccccc2CC12CCN(c1cnc(Sc3cc[nH]c(=O)c3Cl)cn1)CC2 [Example 131, 4-({5-[(3S)-3-amino-1,3-dihydrospiro[indene-2,4′-piperidin]-1′-yl]pyrazin-2-yl}sulfanyl)-3-chloro-1,2-dihydropyridin-2-one]
≤ 50	Cn1ccc(Sc2cnc(N3CCC4(CC3)Cc3ccccc3[C@H]4N)cn2)c(Cl)c1=O [Example 132, 4-({5-[(3S)-3-amino-1,3-dihydrospiro[indene-2,4′-piperidin]-1′-yl]pyrazin-2-yl}sulfanyl)-3-chloro-1-methyl-1,2-dihydropyridin-2-one]
≤ 50	Nc1nccc(Oc2cnc(N3CCC4(CC3)Cc3ccccc3[C@H]4N)cn2)c1Cl [Example 133, (3S)-1′-{5-[(2-amino-3-chloropyridin-4-yl)oxy]pyrazin-2-yl}-1,3-dihydrospiro[indene-2,4′-piperidin]-3-amine]
≤ 50	N[C@@H]1c2ccccc2CC12CCN(c1cnc(Oc3ccnc(Cl)c3Cl)cn1)CC2 [Example 134, (3S)-1′-{5-[(2,3-dichloropyridin-4-yl)oxy]pyrazin-2-yl}-1,3-dihydrospiro[indene-2,4′-piperidin]-3-amine]
≤ 50	N[C@@H]1c2ccccc2CC12CCN(c1cnc3c(Oc4cc[nH]c(=O)c4Cl)n[nH]c3n1)CC2 [Example 135, 4-({6-[(3S)-3-amino-1,3-dihydrospiro[indene-2,4′-piperidin]-1′-yl]-1H-pyrazolo[3,4-b]pyrazin-3-yl}oxy)-3-chloro-1,2-dihydropyridin-2-one]
≤ 50	Nc1nccc(Nc2n[nH]c3nc(N4CCC5(CC4)Cc4ccccc4[C@H]5N)cnc23)c1Cl [Example 138, (S)—N4-(6-(1-amino-1,3-dihydrospiro[indene-2,4′-piperidin]-1′-yl)-1H-pyrazolo[3,4-b]pyrazin-3-yl)-3-chloropyridine-2,4-diamine]
≤ 50	Nc1nccc(Sc2cnc(N3CCC4(CC3)Cc3c(F)cccc3[C@H]4N)cn2)c1Cl [Example 139, (S)-1′-(5-((2-amino-3-chloropyridin-4-yl)thio)pyrazin-2-V)-4-fluoro-1,3-dihydrospiro[indene-2,4′-piperidin]-1-amine]
≤ 50	N[C@@H]1c2ccccc2CC12CCN(c1nc3[nH]nc(N4CCCc5ncccc54)c3nc1C(F)F)CC2 [Example 140, (S)-1′-(5-(difluoromethyl)-3-(3,4-dihydro-1,5-naphthyridin-1(2H)-yl)-1H-pyrazolo[3,4-b]pyrazin-6-yl)-1,3-dihydrospiro[indene-2,4′-piperidin]-1-amine]
≤ 50	N[C@@H]1c2ccccc2CC12CCN(c1cnc3c(C#Cc4ccccc4)n[nH]c3n1)CC2 [Example 143, (S)-1′-(3-(phenylethynyl)-1H-pyrazolo[3,4-b]pyrazin-6-yl)-1,3-dihydrospiro[indene-2,4′-piperidin]-1-amine]
≤ 50	Cc1c(-c2ccccc2Cl)nc2sc(N3CCC4(CC3)Cc3ccccc3[C@H]4N)nn12 [Example 144, (S)-1′-(6-(2-chlorophenyl)-5-methylimidazo[2,1-b][1,3,4]thiadiazol-2-yl)-1,3-dihydrospiro[indene-2,4′-piperidin]-1-amine]
≤ 50	N[C@@H]1c2ccccc2CC12CCN(c1ncc(-c3ccccc3Cl)s1)CC2 [Example 145, (S)-1′-(5-(2-chlorophenyl)thiazol-2-yl)-1,3-dihydrospiro[indene-2,4′-piperidin]-1-amine]
≤ 50	N[C@@H]1c2ccccc2CC12CCN(c1cnc(N3CCCc4ncccc43)cn1)CC2 [Example 146, (3S)-1′-[5-(1,2,3,4-tetrahydro-1,5-naphthyridin-1-yl)pyrazin-2-yl]-1,3-dihydrospiro[indene-2,4′-piperidin]-3-amine]

Second part, the compound before the results:

SMILES	IC50 [nM]
CS(=O)(=O)c1cccc2c1CCCN2c1n[nH]c2nc(N3CCC4(CC3)Cc3ccccc3[C@H]4N)c(CO)nc12 [Example 98, {6-[(3S)-3-amino-1,3-dihydrospiro[indene-2,4′-piperidin]-1′-yl]-3-(5-methanesulfonyl-1,2,3,4-tetrahydroquinolin-1-yl)-1H-pyrazolo[3,4-b]pyrazin-5-yl}methanol]	50 to 1000
NC1c2ccccc2CC12CCN(c1nc3[nH]nc(N4CCCc5ncccc54)c3nc1CO)CC2 (stereo not shown) [Example 99]	≤ 50
N[C@@H]1c2ccccc2CC12CCN(c1nc3[nH]nc(N4CCCc5ncccc54)c3nc1CO)CC2 [Example 100]	50 to 1000
Cn1cc(-c2ccc3c(n2)CCCN3c2n[nH]c3nc(N4CCC5(CC4)Cc4ccccc4[C@H]5N)c(CO)nc23)cn1 [Example 101]	50 to 1000
CC(=O)N1CCN(c2n[nH]c3nc(N4CCC5(CC4)Cc4ccccc4[C@H]5N)c(CO)nc23)c2ccccc21 [Example 102]	≤ 50
N[C@@H]1c2ccccc2CC12CCN(c1nc3[nH]nc(N4CCCCC4)c3nc1CO)CC2 [Example 103]	≤ 50
N[C@@H]1c2ccccc2CC12CCN(c1nc3[nH]ncc3nc1CO)CC2 [Example 104, (S)-(6-(1-amino-1,3-dihydrospiro[indene-2,4′-piperidin]-1′-yl)-1H-pyrazolo[3,4-b]pyrazin-5-yl)methanol]	≤ 50
N#Cc1cccc2c1[C@@H](N)C1(CCN(c3cnc4c(N5CCCc6ncccc65)n[nH]c4n3)CC1)C2 [Example 105, (3S)-3-amino-1′-[3-(1,2,3,4-tetrahydro-1,5-naphthyridin-1-yl)-1H-pyrazolo[3,4-b]pyrazin-6-yl]-1,3-dihydrospiro[indene-2,4′-piperidine]-4-carbonitrile]	≤ 50
COc1ccc2c(n1)[C@@H](N)C1(CCN(c3cnc4c(N5CCCc6ncccc65)n[nH]c4n3)CC1)C2 [Example 106]	≤ 50
COc1ccc2c(n1)CC1(CCN(c3cnc4c(N5CCCc6ncccc65)n[nH]c4n3)CC1)[C@@H]2N [Example 108]	≤ 50
N[C@@H]1c2cc(F)cc(F)c2CC12CCN(c1cnc3c(N4CCCc5ncccc54)n[nH]c3n1)CC2 [Example 109]	≤ 50
Cn1ncc2c1CC1(CCN(c3cnc4c(N5CCCc6ncccc65)n[nH]c4n3)CC1)[C@@H]2N [Example 110]	≤ 50
N[C@@H]1c2ccccc2CC12CCN(c1cnc(C(=O)N3CCCc4ncccc43)cn1)CC2 [Example 111]	≤ 50
N[C@@H]1c2ccccc2CC12CCN(c1nccnc1CO)CC2 [Example 120, {3-[(3S)-3-amino-1,3-dihydrospiro[indene-2,4′-piperidin]-1′-yl]pyrazin-2-yl}methanol]	≤ 50
Nc1cc(Sc2cnc(N3CCC4(CC3)Cc3ccccc3[C@H]4N)cn2)c(Cl)c(Cl)n1 [Example 129, (S)-1′-(5-((6-amino-2,3-dichloropyridin-4-yl)thio)pyrazin-2-yl)-1,3-dihydrospiro[indene-2,4′-piperidin]-1-amine]	≤ 50
N[C@@H]1c2ccccc2CC12CCN(c1cnc(Sc3ccnc(Cl)c3Cl)cn1)CC2 [Example 130, (3S)-1′-{5-[(2,3-dichloropyridin-4-yl)sulfanyl]pyrazin-2-yl}-1,3-dihydrospiro[indene-2,4′-piperidin]-3-amine]	≤ 50
